This note sets out measurements from PMC12057046, “Elucidation of short linear motif-based interactions of the MIT and rhodanese domains of the ubiquitin-specific protease 8” (Biology Direct, 2025).

The first assay concerns the target T1, USP8 Rhod domain (Homo sapiens, UniProt P40818).
T1 construct: USP8 Rhod (174–317) (UniProt: P40818); GST (cleaved yes); made in house; host or cells: Escherichia coli BL21-Gold (DE3)
T1 sequence (P40818 174-317): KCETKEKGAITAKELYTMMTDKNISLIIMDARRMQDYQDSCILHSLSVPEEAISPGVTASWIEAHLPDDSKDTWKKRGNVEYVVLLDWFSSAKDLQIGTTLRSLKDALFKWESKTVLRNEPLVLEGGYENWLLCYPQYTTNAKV
In words: Peptide-phage display-based deep mutational scanning (DMS), USP8 Rhod domain. In kind it is binding. Particulars: PSSM, library USP8_DMS, days 2,3; position 7.
Consider “KIAA1614_Q5VZ46_569_584 G7D (MERVLGDLSSPLRLLP; peptide 569-584; UniProt Q5VZ46 569-584, looked up, variant G7D)”, for which the “enrichment_relative_to_wt at position 7 (wt G)” value was 17 and the “proportion of amino acid at position 7 (wt G)” value stood at 0.26.

In the case of “KIAA1614_Q5VZ46_569_584 G7L (MERVLGLLSSPLRLLP; UniProt Q5VZ46 569-584, looked up, variant G575L)”, the “enrichment_relative_to_wt at position 7 (wt G)” value is on record as -3 and the “proportion of amino acid at position 7 (wt G)” value is 0.00507.

The same assay, now with this note: PSSM, library USP8_DMS, days 2,3; position 15.
Take “KIAA1614_Q5VZ46_569_584 L15A (MERVLGGLSSPLRLAP; UniProt Q5VZ46 569-584, looked up, variant L15A)”: the “enrichment_relative_to_wt at position 15 (wt L)” value is given as -207 and the “proportion of amino acid at position 15 (wt L)” value came out at 0.00469.

“KIAA1614_Q5VZ46_569_584 L15I (MERVLGGLSSPLRLIP; UniProt Q5VZ46 569-584, looked up, variant L15I)”: the “enrichment_relative_to_wt at position 15 (wt L)” value was -277 and the “proportion of amino acid at position 15 (wt L)” value is listed as 0.00349.

Still in this assay, the particulars now being: ProP-PD DMS, bait USP8_Rhodanese__P40818_174_317; pair wild-type GMERVLGGLSSPLRLL (wt_00013) vs mutant; positive where wild-type fraction is higher, negative where mutant fraction is higher.
In turn, GMERVLGGLSSPLSLL displayed a hit_pair_ratio of -1.20.

In turn, GMERVLGGLSSPLVLL gave a hit_pair_ratio of -21.41.

GMERVLGGLSSPSRLL returned a hit_pair_ratio of 1.14.

GMERVLGGMSSPLRLL registered a hit_pair_ratio of 21.15.

In turn, GMERVLGGLSSPLTLL came in with a hit_pair_ratio of 1.50.

GMERVLGGLSSPLRLA displayed a hit_pair_ratio of 131.67.

Substance GMERVLGGLSSPTRLL showed a hit_pair_ratio of 1.41.

The same assay, now with this note: ProP-PD pairs, bait USP8_Rhodanese__P40818_174_317; wild-type/mutant pair, wild type KIAA1614 569-584 GMERVLGGLSSPLRLL (wt_00013).
Turning to GMFRVLGGLSSPLRLL, the hit_pair_ratio is given as 321.97.

GMERHLGGLSSPLRLL returned a hit_pair_ratio of -4.18.

In turn, VMERVLGGLSSPLRLL showed a hit_pair_ratio of 53.66.

Regarding GFERVLGGLSSPLRLL, the hit_pair_ratio stood at 1.56.

For GMERVLLGLSSPLRLL, the hit_pair_ratio stood at 3.42.

GMERVPGGLSSPLRLL came in with a hit_pair_ratio of 12.38.

Turning to GMTRVLGGLSSPLRLL, the hit_pair_ratio was found to be 23.00.

On to GMERVLIGLSSPLRLL, for which the hit_pair_ratio is listed as 3.89.

As to GMERVLRGLSSPLRLL, the hit_pair_ratio is on record as 18.46.

GMERVLPGLSSPLRLL came in with a hit_pair_ratio of 131.67.

GMERDLGGLSSPLRLL yielded a hit_pair_ratio of -11.89.

In turn, GMERVIGGLSSPLRLL gave a hit_pair_ratio of -3.21.

The assay is the same for the next values; noted with them: bait USP8_Rhodanese__P40818_174_317; wild-type/mutant pair ratio of averaged fractions; negative values where mutant fraction is higher.
With GLALWEAKMHQLAERA, the hit_pair_ratio is on record as -2.45.

On to GLALWEAKMKQLAEVA, for which the hit_pair_ratio is 195.90.

Consider GLALWEAKMRQLAERA, for which the hit_pair_ratio was found to be 1.94.

On to GLALWEAKMKQLAERD, for which the hit_pair_ratio is -5.62.

Regarding GLALWEAKMKQLAEAA, the hit_pair_ratio worked out at 1107.01.

Regarding GLALWEAKMKALAERA, the hit_pair_ratio worked out at 133.35.

As to GLALWEAKMKQLAESA, the hit_pair_ratio was -3.11.

As to GLALWEAKMKQLAERF, the hit_pair_ratio worked out at 1107.01.

GLALWEAKMKMLAERA: the hit_pair_ratio stood at 23.91.

As for GLALWEAKMKQLAERR, the hit_pair_ratio came out at 553.50.

On to GLALWEAKMKQLNERA, for which the hit_pair_ratio was 17.57.

For GLALWEAKMKQLHERA, the hit_pair_ratio is recorded as 1.77.

Consider GLALWEAKMKQLIERA, for which the hit_pair_ratio was 369.00.

Consider PMERVLGGLSSPLRLL, for which the hit_pair_ratio was determined as 1.96.

The same assay, now with this note: wild type/mutant pair; bait USP8_Rhodanese__P40818_174_317; vs hit_library_peptide_wt GLALWEAKMKQLAERA; negative where mutant fraction exceeds wild type; ProP-PD pairs (sheet S7.B).
GLALLEAKMKQLAERA displayed a hit_pair_ratio of 417.62.

In turn, GLLLWEAKMKQLAERA had a hit_pair_ratio of 1107.01.

As for GLASWEAKMKQLAERA, the hit_pair_ratio is listed as 101.08.

Consider GLALWEGKMKQLAERA, for which the hit_pair_ratio amounted to 68.11.

For the substance GLALFEAKMKQLAERA, the hit_pair_ratio came out at 1107.01.

As to GLSLWEAKMKQLAERA, the hit_pair_ratio was 33.04.

As to GLALWSAKMKQLAERA, the hit_pair_ratio was determined as 21.71.

GLTLWEAKMKQLAERA: the hit_pair_ratio is given as 92.62.

With GSALWEAKMKQLAERA, the hit_pair_ratio was 417.62.

GLARWEAKMKQLAERA registered a hit_pair_ratio of 12.82.
